Assay results as given in ChEMBL document CHEMBL1137749, “Antifungal unsaturated cyclic Mannich ketones and amino alcohols: study of mechanism of action” (2009).
≈ marks a conversion by molar mass, not a printed value. Calls of active or inactive are those of the source. The calls are words filed in the database; no cut-off is given here.

What was measured:
Candida albicans [1] = test: Antifungal activity against Candida albicans ATCC 90028 after 48 hrs by macro tube dilution method; format: functional; conditions: ATCC 90028, 48 h
Nakaseomyces glabratus = test: Antifungal activity against Candida glabrata ATCC 3916 after 48 hrs by macro tube dilution method; format: functional; conditions: ATCC 3916, 48 h
Pichia kudriavzevii = test: Antifungal activity against Candida krusei ATCC 30068 after 48 hrs by macro tube dilution method; format: functional; conditions: ATCC 30068, 48 h
Candida parapsilosis = test: Antifungal activity against Candida parapsilosis ATCC 22019 after 48 hrs by macro tube dilution method; format: functional; conditions: Lodderomyces parapsilosis, ATCC 22019, 48 h
Saccharomyces cerevisiae = test: Antifungal activity against Saccharomyces cerevisiae after 48 hrs by macro tube dilution method; format: functional
Aspergillus sp. = test: Antifungal activity against Aspergillus sp. after 48 hrs by macro tube dilution method; format: functional
Candida albicans [2] = test: Inhibition of chitin synthase in Candida albicans ATCC 90028 at 1.5 times MIC by liquid scintillation analyzer relative to nikkomycin
Rattus norvegicus = organism: Rattus norvegicus; test: Inhibition of lactate dehydrogenase in Wistar rat kidney at 1.5 times MIC relative to control
Candida albicans [3] = test: Antifungal activity against Candida albicans ATCC 90028 assessed as increase in 104 kDa fungal protein at 0.5 time MIC after 1 hr by electrophoresis-based microchip technology; format: functional, organism-based
Candida albicans [4] = test: Antifungal activity against Candida albicans ATCC 90028 assessed as increase in 104 kDa fungal protein at 2 times MIC after 1 hr by electrophoresis-based microchip technology; format: functional, organism-based
Candida albicans [5] = test: Antifungal activity against Candida albicans ATCC 90028 assessed as increase in 117 kDa fungal protein at 0.5 time MIC after 1 hr by electrophoresis-based microchip technology; format: functional, organism-based
Candida albicans [6] = test: Antifungal activity against Candida albicans ATCC 90028 assessed as increase in 117 kDa fungal protein at 2 times MIC after 1 hr by electrophoresis-based microchip technology; format: functional, organism-based
Candida albicans [7] = test: Antifungal activity against Candida albicans ATCC 90028 assessed as increase in 124 kDa fungal protein at 0.5 time MIC after 1 hr by electrophoresis-based microchip technology; format: functional, organism-based
Candida albicans [8] = test: Antifungal activity against Candida albicans ATCC 90028 assessed as increase in 124 kDa fungal protein at 2 times MIC after 1 hr by electrophoresis-based microchip technology; format: functional, organism-based
Candida albicans [9] = test: Antifungal activity against Candida albicans ATCC 90028 assessed as increase in 147 kDa fungal protein at 0.5 time MIC after 1 hr by electrophoresis-based microchip technology; format: functional, organism-based
Candida albicans [10] = test: Antifungal activity against Candida albicans ATCC 90028 assessed as increase in 147 kDa fungal protein at 2 times MIC after 1 hr by electrophoresis-based microchip technology; format: functional, organism-based
Candida albicans [11] = test: Antifungal activity against Candida albicans ATCC 90028 assessed as number of fungal cells with pseudohyphae out of 100 cells at 0.5 time MIC after 0 to 6 hrs by light microscopy; format: functional
Candida albicans [12] = test: Antifungal activity against Candida albicans ATCC 90028 assessed as number of fungal cells without pseudohyphae out of 100 cells at 0.5 time MIC after 0 to 6 hrs by light microscopy; format: functional

Row | Compound | MIC (Candida albicans [1]) [µg/mL] | MIC (Nakaseomyces glabratus) [µg/mL] | MIC (Pichia kudriavzevii) [µg/mL] | MIC (Candida parapsilosis) [µg/mL] | MIC (Saccharomyces cerevisiae) [µg/mL] | MIC (Aspergillus sp.) [µg/mL] | inhibition (Candida albicans [2]) | inhibition (Rattus norvegicus) [%] | Activity (Candida albicans [3]) | Activity (Candida albicans [4]) | Activity (Candida albicans [5]) | Activity (Candida albicans [6]) | Activity (Candida albicans [7]) | Activity (Candida albicans [8]) | Activity (Candida albicans [9]) | Activity (Candida albicans [10]) | Activity (Candida albicans [11]) | Activity (Candida albicans [12])
1 | COc1cc(/C=C2\CCC(CN3CCCCC3)C2=O)cc(OC)c1OC (stereo not given) | 12.5 (≈ 34.8 µM) | 100 (≈ 278 µM) | 12.5 (≈ 34.8 µM) | 50 (≈ 139 µM) | 25 (≈ 69.5 µM) | 100 (≈ 278 µM) | – | – | – | – | – | – | – | – | – | – | – | –
2 | Cc1ccc(/C=C2\CCC(CN3CCOCC3)C2=O)cc1 (stereo not given) | 6.25 (≈ 21.9 µM) | 3.12 (≈ 11 µM) | 12.5 (≈ 43.8 µM) | 6.25 (≈ 21.9 µM) | 1.56 (≈ 5.47 µM) | 25 (≈ 87.6 µM) | – | – | – | – | – | – | – | – | – | – | – | –
3 | COc1ccc(/C=C2\CCC(CN3CCCCC3)C2=O)cc1 (stereo not given) | 12.5 (≈ 41.7 µM) | 6.25 (≈ 20.9 µM) | 12.5 (≈ 41.7 µM) | 6.25 (≈ 20.9 µM) | 3.12 (≈ 10.4 µM) | 100 (≈ 334 µM) | – | – | Active | Active | Active | Active | Active | Active | Active | Active | – | –
4 | C[C@@H]1[C@H](O)[C@@H](C)/C=C/C=C/C=C/C=C/C=C/C=C/C=C/[C@H](O[C@@H]2O[C@H](C)[C@@H](O)[C@H](N)[C@@H]2O)C[C@@H]2O[C@](O)(C[C@@H](O)C[C@@H](O)[C@H](O)CC[C@@H](O)C[C@@H](O)CC(=O)O[C@H]1C)C[C@H](O)[C@H]2C(=O)O [AMPHOTERICIN B] | – | – | – | – | – | – | – | – | – | – | – | – | – | – | – | – | 18 | 77
5 | Cc1ccc(/C=C2\CCCC(CN3CCOCC3)C2=O)cc1 (stereo not given) | 100 (≈ 334 µM) | > 200 | 200 (≈ 668 µM) | 25 (≈ 83.5 µM) | 3.12 (≈ 10.4 µM) | > 200 | – | – | – | – | – | – | – | – | – | – | – | –
6 | O=C1/C(=C/c2ccccc2)CCC1CN1CCc2ccccc2C1 (stereo not given) | 12.5 (≈ 39.4 µM) | 6.25 (≈ 19.7 µM) | 12.5 (≈ 39.4 µM) | 12.5 (≈ 39.4 µM) | 1.56 (≈ 4.91 µM) | 200 (≈ 630 µM) | – | – | Active | Active | Active | Active | Active | Active | Active | Active | – | –
7 | COc1cccc(/C=C2\CCC(CN3CCCCC3)C2=O)c1 (stereo not given) | 12.5 (≈ 41.7 µM) | 12.5 (≈ 41.7 µM) | 12.5 (≈ 41.7 µM) | 6.25 (≈ 20.9 µM) | 6.25 (≈ 20.9 µM) | 100 (≈ 334 µM) | – | – | – | – | – | – | – | – | – | – | – | –

Second part, led by results:

Row | MIC (Candida albicans [1]) [µg/mL] | MIC (Nakaseomyces glabratus) [µg/mL] | MIC (Pichia kudriavzevii) [µg/mL] | MIC (Candida parapsilosis) [µg/mL] | MIC (Saccharomyces cerevisiae) [µg/mL] | MIC (Aspergillus sp.) [µg/mL] | inhibition (Candida albicans [2]) | inhibition (Rattus norvegicus) [%] | Compound | Activity (Candida albicans [3]) | Activity (Candida albicans [4]) | Activity (Candida albicans [5]) | Activity (Candida albicans [6]) | Activity (Candida albicans [7]) | Activity (Candida albicans [8]) | Activity (Candida albicans [9]) | Activity (Candida albicans [10]) | Activity (Candida albicans [11]) | Activity (Candida albicans [12])
8 | 100 (≈ 321 µM) | > 200 | 200 (≈ 642 µM) | 200 (≈ 642 µM) | 100 (≈ 321 µM) | 100 (≈ 321 µM) | 50% | 30 | O=C1/C(=C/c2ccccc2)CCCCCC1CN1CCCCC1 (stereo not given) | – | – | – | – | – | – | – | – | – | –
9 | > 200 | > 200 | > 200 | > 200 | > 200 | > 200 | – | – | O[C@H]1/C(=C/c2ccccc2)CCC[C@H]1CN1CCOCC1 (relative stereo) | – | – | – | – | – | – | – | – | – | –
10 | > 200 | > 200 | > 200 | > 200 | 200 (≈ 638 µM) | > 200 | Active | – | O=C1/C(=C/c2ccccc2)CCCCCC1CN1CCOCC1 (stereo not given) | – | – | – | – | – | – | – | – | – | –
11 | 50 (≈ 167 µM) | 100 (≈ 334 µM) | 100 (≈ 334 µM) | 100 (≈ 334 µM) | 25 (≈ 83.5 µM) | > 200 | – | – | O[C@H]1/C(=C/c2ccccc2)CCCC[C@@H]1CN1CCCCC1 (relative stereo) | – | – | – | – | – | – | – | – | – | –
12 | 200 (≈ 696 µM) | > 200 | 200 (≈ 696 µM) | > 200 | 200 (≈ 696 µM) | > 200 | – | – | O[C@H]1/C(=C/c2ccccc2)CCC[C@@H]1CN1CCOCC1 (relative stereo) | – | – | – | – | – | – | – | – | – | –
13 | > 200 | 200 (≈ 668 µM) | 200 (≈ 668 µM) | > 200 | 50 (≈ 167 µM) | 200 (≈ 668 µM) | – | – | O[C@H]1/C(=C/c2ccccc2)CCCC[C@H]1CN1CCCCC1 (relative stereo) | – | – | – | – | – | – | – | – | – | –
14 | 100 (≈ 368 µM) | > 200 | 50 (≈ 184 µM) | > 200 | 50 (≈ 184 µM) | > 200 | – | – | O[C@@H]1/C(=C/c2ccccc2)CC[C@H]1CN1CCCCC1 (relative stereo) | – | – | – | – | – | – | – | – | – | –
15 | 3.12 (≈ 11.5 µM) | 6.25 (≈ 23 µM) | 3.12 (≈ 11.5 µM) | 3.12 (≈ 11.5 µM) | 0.8 (≈ 2.95 µM) | 50 (≈ 184 µM) | – | – | O=C1/C(=C/c2ccccc2)CCC1CN1CCOCC1 (stereo not given) | – | – | – | – | – | – | – | – | – | –
